Target: cytoplasmic dynein 1 (Sus scrofa, UniProt A0A287B9W3)
Assay: microtubule-stimulated ATPase assay
Assay type: biochemical

SMILES: N#CC(=C(O)c1ccc(Cl)cc1Cl)c1nc2ccccc2c(=O)[nH]1 [Ciliobrevin A]
- IC50: ~84 µM

— PMC8543760 (Cell chemical biology, 2018)
